In patent US20230000955A1, “THROMBOMODULIN FUNCTIONAL DOMAINS FOR USE IN PROMOTING OSTEOBLAST FUNCTIONS AND BONE HEALING” (BLUE BLOOD BIOTECH CORP., priority 2019, published 2023):

How the values were obtained:
mice = assay: Calvarial bone defect healing with DCI treatment (μCT, H&E); format: in vivo, mouse; conditions: DCI alone
Procedure: FIGS. 8A-F show the effect of the TMD1 and TMD23 on calvarial bone healing. (8A) Cell migration, (8B) proliferation and (8C) mineralization of MG63 cells treated with the indicated dose of rTMD1. (8D) Calvarial bone healing of TM wild-type TM^wt/wt and TM domain 1 (TMD1)-deleted TM^LeD/LeD mice. (8E) μCT scanning and (8F) HE stain were used to evaluate the effect of vehicle, dichloroisocoumarin (DCI) and DCI plus rTMD23 or rTMD1 (100 μg/kg) on bone healing after a calvarial defect was created in mice. N=5 per group. Black bar=100 μm. White bar=1 mm. Dotted line indicates the section region. ***P<0.001.
Calvarial bone defect healing. Male mice were randomly assigned to designated groups. After anesthesia, a 4 mm-diameter defect on the calvaria was created and the wound was sutured. A combination of dichloroisocoumarin (DCI) (1 mM) or rTMD23 (0, 10, 100 μg/kg) and U0126 (20 μM) was subcutaneously injected once near the calvarial bone opening at week 1 after the surgery. Bone healing was monitored radiographically using μCT (Skyscan 1076, Antwerp, Belgium) and histologically at indicated time points (weeks 0 and 8) after the surgery. […] The quantification of the removed and regenerated bone volume (mm^3) performed by a 3D CT analyzer software (CTAN; Skyscan). […]

protein C = conditions: cited from earlier work
MC3T3-E1 cells = assay: Proliferation assay (WST-1); format: cell-based; conditions: 1% FBS
Procedure: Proliferation assay. MG63 cells were treated with various concentrations of rTMD23 for 1, 4, 7 days. The medium was replaced every 2-3 days. At the end, the amount of living cells in each well was measured with crystal violet assay. The cells in each well were washed by PBS twice right before staining. Crystal violet (0.5%, 300 μL) were added in each well for 15 min, followed by ddH2O rinse at least five times. Acetic acid (10%, 300 μL) were added to dissolute the crystal violet. Then, taking 100 μL/well into a 96 well plate to get an OD595 measurement. A proliferation assay on MC3T3-E1 cells with various concentrations of a variant of TMD23 was performed. Briefly, MC3T3-E1 cells in 96-well plates were treated with rTMD23NA at various concentrations for 1, 3, 5 days. The number of living cells in each well was measured with WST-1 reagent. The cells in each well were washed by DMEM medium twice right before staining with 100 μL of 10% WST-1 in DMEM. The absorption at A450 nm-A690 nm of each well was measured.
Human osteoblast-like cell line MG63 and osteoblast cell line MC3T3-E1 were used in the cell proliferation assay. Briefly, different concentrations of rTMD23 and rTMD23NA, which is a variant form of rTMD23, were respectively added to MG63 or MC3T3-E1 cell culture containing 1% FBS. […] The OD595 of the cell lysate in 10% acetic acid was measured to obtain the relative cell count in each well.

Compound | regeneration of calvarial bone defect (μCT and H&E) (mice) | protein C activation activity (protein C) | cell proliferation (absorbance, WST-1) (MC3T3-E1 cells)
O=c1oc(Cl)c(Cl)c2ccccc12 [DCI, dichloroisocoumarin] | reduced regeneration of calvarial bone defect |  | 
rTMD23NA: recombinant TMD23 variant with two substitutions Asn364Ala and Asn391Ala, SEQ ID NO: 3 (274aa) |  | little or no protein C activation activity | enhance cell proliferation
